The results in this text go back to ChEMBL document CHEMBL1147140, “Strongylophorine-26, an inhibitor of cancer cell Invasion: SAR revealed by synthesis of analogues” (J Nat Prod, 2007).

≈ marks a conversion by molar mass, not a printed value. Calls of active or inactive are those of the source. No cut-off for these calls is given here.

Assay [1] has as its system MDA-MB-231. The assay is described as follows: Cytotoxicity against human MDA-MB-231 cells. The format is cell-based.
The subject of assay [2] is MDA-MB-231. The assay is described as follows: Anti-invasive activity against human MDA-MB-231 cells at <= 0.3 ug/ml. The format is functional, cell-based.

For `COC1=CC(=O)C=C(C[C@H]2[C@]3(C)CC[C@H]4C(C)(C)CCC[C@]4(C)[C@H]3CC[C@]2(C)O)C1=O` (stereo in doubt; (+)-3) [listing 1 of 2 here], the concentration for half-maximal inhibition (IC50) (as a rule, the concentration that gives 50% inhibition) in assay [1] (mda-mb-231) came to 0.3 µg/mL (≈ 0.7 µM). For `COC1=CC(=O)C=C(C[C@H]2[C@]3(C)CC[C@H]4C(C)(C)CCC[C@]4(C)[C@H]3CC[C@]2(C)O)C1=O` (stereo in doubt; (+)-3) [listing 2 of 2 here], the outcome in assay [2] was inactive. Take `COC1=CC(=O)C=C(C[C@H]2[C@]3(C)CC[C@H]4C(C)(C)CCC[C@]4(C)[C@H]3CC[C@]2(C)O)C1=O` (stereo in doubt; (-)-3) [listing 1 of 2 here]: in assay [1] (Homo sapiens, MDA-MB-231, read-out: IC50), the concentration for half-maximal inhibition (IC50) worked out at 0.3 µg/mL (≈ 0.7 µM). Regarding `COC1=CC(=O)C=C(C[C@H]2[C@]3(C)CC[C@H]4C(C)(C)CCC[C@]4(C)[C@H]3CC[C@]2(C)O)C1=O` (stereo in doubt; (-)-3) [listing 2 of 2 here], in assay [2], the outcome was inactive.
